Columns and labels:
[1] = Color retention after shampoo treatment, peptide as sealant with Basic Violet 2 dye; set-up: species or system human; details: for Delta E: 0.50 wt % Basic Violet 2, peptide 0.25 wt %, 30 min contact, after 10 shampoo treatments, dye alone 37.34; for hair color retention compared to the dye alone (in words): Basic Violet 2, by Delta E values, vs Comparative Example 13
Method: The peptides used in this Example were prepared as described in Examples 1 and 2. The color retention was quantified using a spectrophotometric measurement technique. A peptide given as SEQ ID NO:41 or SEQ ID NO:42 (38 mg), produced via fermentation as described in Examples 1 and 2, was added to 15 g of an aqueous 0.50 wt % solution of Basic Violet 2 (Abbey Color, Philadelphia, Pa.) and the solution was allowed to stir for 1 h. A natural white hair tress (1 cm wide, potted, International Hair Importers & Products Inc., Bellerose, N.Y.) was inserted into a 15 mm×125 mm test tube and 13 mL of the peptide/dye mixture was injected into the test tube. The hair tress was immersed in contact with the colorant solution for 30 min and the colorant solution was agitated using a magnetic stirrer. The tress was removed, allowed to drip dry, and then air dried for 30 min. The hair tress was then subjected to a water rinse using copious amounts of deionized water, followed by a shampoo treatment with embrocation for 30 seconds. The shampoo treatment involved the application of Pantene Pro-V Sheer Volume shampoo (Proctor & Gamble, Cincinnati, Ohio) to the hair as follows. A quarter-sized drop of the shampoo was distributed evenly over the hair tress and then was massaged aggressively into the hair for 30 sec, after which the hair tress was rinsed with water to remove the shampoo. The hair tress was then dried at room temperature. The shampooing step was repeated 9 more times to give a total of 10 shampoo treatments. The entire procedure described above was repeated without the addition of the hair-binding peptide to serve as a control. The color intensity after the shampoo was measured as described in Examples 4-7.

[2] = Co-application of multi-block peptide with semi-permanent dye (Arianor Ebony), color retention; set-up: species or system human; key: ΔE of peptide sample minus peptide-free control; larger = better retention; details: difference in Delta E between peptide sample and peptide free control after 3 embrocation cycles (about 12 manual shampoos); pH 8.5-9.0; >2 benefit, >4 substantial benefit
Method: (§1) A 0.5% aqueous solution of Arianor Ebony (Sensient Technologies Corp, Milwaukee, Wis.) containing 3% benzyl alcohol and 0.05% diazolidinyl urea (biocide) was prepared. Dye insolubles were removed by filtration and the pH of the dye solution was adjusted to 8.50-9.0, using ethanolamine.
(§2) Approximately 1 mL of the dye solution was added to selected wells of a 24-well plate (Thomson Instrument Co., Oceanside, Calif.; part # 931565). A multi-block peptide (see Table 12) was dissolved in a solution consisting of 3 wt % benzyl alcohol and 95 wt % water to yield a peptide concentration of 2 wt % or approximately 20 mg/mL. The pH was adjusted to 8.5-9.0 using ethanolamine. The peptide solution was then pipetted into test wells containing dye solution in the amount of 1 mL or 0.2 mL respectively. The total volume in each test well was then adjusted to 2 mL where necessary using 3% aqueous benzyl alcohol (pH adjusted to 8.5-9.0 with ethanolamine). Peptide free controls consisted of 1 mL of dye solution diluted to 2 mL with the pH adjusted aqueous benzyl alcohol solution.
(§3) Baseline […] readings were made on one inch long tresses (see below) using an X-RITE® SP78™ Sphere Spectrophotometer (X-Rite, Inc., Grandville, Mich.), by placing the hair tress into the photosensor and calculating L*, a* and b* parameters representing the photometer response. All measurements were the average of three individual determinations.
(§4) The tresses (potted on one end with resin) of natural white, 85% gray or regular bleached hair (International Hair Importers and Products, Bellerose, N.Y.) were immersed in the peptide/dye solution and the entire well plate was agitated on a VORTEX-GENIE® 2 Mixer (Scientific Industries, Bohemia, N.Y.) at a speed setting of 1 for 30 minutes. The tresses were removed from the wells, rinsed for 30 seconds under flowing deionized water and then air dried.
(§5) The following complement of beads was then added to each well containing a hair tress: (8 beads in all; 4 Novagen Coli Rollers Plating Beads—sterilized (EMD Biosciences, San Diego, Calif.; Catalog No. 71013), 2 BioSpec 6.35 mm glass beads (BioSpec Products, Bartlesville, Okla.; Catalog No. 11079635), and 2 BioSpec 3.2 mm Stainless Steel Bead (Catalog No. 11079132ss).
(§6) Then 2.5 mL of aqueous 50% Pantene Pro V® shampoo (Proctor & Gamble Co., Cincinnati, Ohio) was pipetted into each well. The plate was placed on a VWR® VX-2500 Multi-tube Vortexer (VWR, West Chester, Pa.) for 5 minutes to simulate shampooing with embrocation. The hair tresses were then rinsed under flowing deionized water and air dried. This cycle was repeated two more times except that the length of time was 10 minutes for both subsequent embrocation cycles. (This treatment was previously determined to simulate approximately 12 manual shampoo cycles.) At the conclusion of the third embrocation cycle L*, a* and b* values were measured and Delta E values (ΔE) were calculated using equation 1 below:
(§7) where L*=the lightness variable and a* and b* are the chromaticity coordinates of CIELAB colorspace as defined by the International Commission of Illumination (CIE) (Minolta, Precise Color Communication—Color Control From Feeling to Instrumentation, Minolta Camera Co., 1996).
(§8) The Delta E value (ΔE) indicates color retention relative to the non-dyed hair and larger Delta E values indicate better performance. Values listed in the table represent the difference in Delta E values between the peptide-containing sample and the peptide free control. This difference is indicative of color retention after shampoo or water rinse treatments and positive values indicate better performance relative to the peptide free controls (Table 12).

[3] = as above; set-up: species or system human; details: difference in Delta E between peptide sample and peptide free control after 3 embrocation cycles (about 12 manual shampoos); pH 8.5-9.0; >2 benefit, >4 substantial benefit
Method: as §1, §2, §3, §4, §5, §6, §7, §8

Substance	Delta E [1]	hair color retention compared to the dye alone (in words) [1]	ΔE Retention Ebony Dye Regular Bleached Hair [2]	ΔE Retention Ebony dye with Natural White Hair [2]	ΔE Retention Ebony Dye with 85% Gray Hair [3]
P-EQISGSLVAAPW-KRKRK-D (PEQISGSLVAAPWKRKRKD; Peptide having affinity for hair) [HC 74]	38.91	a small improvement in hair color retention	0.1	8.5	7.5
P-TPPELLHGAPRS-KRKRK-D (PTPPELLHGAPRSKRKRKD; Peptide having affinity for hair) [HC 71]	37.02	no improvement in hair color retention	1.9	5.2	2.9

Reference: US20080280810A1, “PEPTIDES HAVING AFFINITY FOR BODY SURFACES” (priority 2006, published 2008)
